“Also recorded” adds a separate entry of the source. Read-outs that look alike come from different tables or passages of the source.
Assays:
Aβ42 secretion [1] = assay: Primary in vitro screen, CHO-APP695NL,I,his cells, end-specific Aβ40 and Aβ42 ELISAs; type: cell-based, Chinese hamster; conditions: for activity at 100 µM / activity at 10 µM: Cricetulus griseus, 6 h; for selective reduction of Aβ42 levels in the primary screen: 10 μM or 100 μM, classification on a 20% change
Experimental: Aβ40 and Aβ42 levels in culture supernatants were determined for each time points using ELISA.
In a primary screen, the effects of NSAIDs on Aβ42 secretion by a CHO cell line that expressed APP(CHO-APP695NL,I,his) were examined. Duplicate cell cultures were treated with (a) a vehicle, (b) 10 μM of NSAID, or (c) 100 μM of NSAID.
To determine Aβ40 and Aβ42 levels, six-hour culture supernatants taken from cells grown in a single well of a twenty-four-well plate were used in end-specific Aβ40 and Aβ42 ELISAs (Suzuki, et al. (1994) Sci 264:[…]). Aβ40 and Aβ42 levels of cultures treated with NSAID were compared with those of cultures treated with the vehicle alone. […] NSAIDs that caused either selective reduction of Aβ42 levels or reduction in both Aβ40 and Aβ42 levels are subjected to a secondary screen.

Aβ42 production = Aβ42 production in APP695-transfected H4 cells; type: cell-based, human
Experimental: In a tertiary screen, Aβ production, sAPP production, and toxicity in a human H4 neuroglioma cell line that expressed APP are examined for all FDA-approved NSAIDs and novel NSAIDs that selectively reduce Aβ42 levels. Three doses of each NSAID are tested. The first is a dose that is expected to cause maximum reduction of Aβ42 levels. The second dose is one that reduces Aβ42 levels by 50% of the maximum value, while the third dose is one that reduces Aβ42 levels by 10-20% of the maximum value.

[2] = system: brain Aβ42 levels in Tg2576 mice; assay: Acute oral dosing of three-month-old Tg2576 mice, brain Aβ ELISA; type: in vivo, mouse; conditions: for brain Aβ42 levels: three-month old Tg2576 mice, 100 mg/kg/day orally for three days, compared with vehicle
Experimental: NSAIDs were dissolved in an appropriate vehicle. Dimethyl sulfoxide (DMSO), ethanol, and ethyl acetate are some examples. The NSAID solution was mixed with Kool-Aid and administered orally using a medicine dropper. […] At two hours after the final doses were administered, animals were sacrificed, and SDS soluble Aβ40 and Aβ42 were analyzed using ELISA.
Three month old mice have high levels of soluble Aβ in the brain but no Aβ deposition (see Hsiao et al. (1996) Science 274:99-102). […] Brain levels of SDS-soluble Aβ40 and Aβ42 were measured using ELISA.
Compounds were administered orally.

[3] = plasma concentration of the drug; cited from earlier work
Aβ42 secretion [4] = assay: Non-selective and selective COX-inhibitors tested for effect on Aβ42 levels in cell cultures (Table 1 summary); type: cell-based; conditions: cell cultures, cell line and concentration not stated
Experimental: All measurements were performed in duplicate.
Aβ40 and Aβ42 levels in cell culture supernatants were analyzed using ELISA. Aβ42/Aβ40 ratios and total Aβ levels were normalized to values obtained from DMSO-treated cultures. […] NSAIDs were verified using NMR and mass spectrometry.

[5] = 100 μM, six-hour culture supernatants
[6] = 100 μM, six-hour culture supernatants, read-out: % Control % Aβ42
[7] = 100 μM, six-hour culture supernatants, read-out: % Control Aβ40
[8] = 100 μM, six-hour culture supernatants, read-out: % Control Aβ42
[9] = 10 μM, six-hour culture supernatants, read-out: % Control % Aβ42
[10] = 10 μM, six-hour culture supernatants, read-out: % Control Aβ40
[11] = 10 μM, six-hour culture supernatants, read-out: % Control Aβ42
[12] = 10 μM, six-hour culture supernatants
[13] = Tg2576 mice, three month-old, 50 mg/kg/day orally for three days, SDS-soluble, mean ± SD
[14] = Tg2576 mice, treatment for three days, 50 mg/kg/day

Cc1cc(NC(=O)C2=C(O)c3ccccc3S(=O)(=O)N2C)no1 [Isoixicam]
% Control % Aβ42 (Aβ42 secretion [1]; [5]): 103%
% Control Aβ40 (Aβ42 secretion [1]; [5]): 109%
% Control Aβ42 (Aβ42 secretion [1]; [5]): 112%

CC(C(=O)O)c1cccc(C(=O)c2ccccc2)c1 (centres unmarked) [Ketoprofen]
activity at 100 µM (Aβ42 secretion [1]; [6]): 117%
activity at 100 µM (Aβ42 secretion [1]; [7]): 88%
activity at 100 µM (Aβ42 secretion [1]; [8]): 107%

CC(C(=O)O)c1ccc(-c2ccccc2)c(F)c1 (racemic) [Flurbiprofen, flurbiprofen]
levels of Aβ40 production (Aβ42 production): not altered
Aβ42 levels lowered by (Aβ42 production; 100 μM): 50%

Cc1ccc(C(C)C)cc2c(C)ccc1-2 [Guaiazulene]
activity at 100 µM (Aβ42 secretion [1]; [6]): 156%
activity at 100 µM (Aβ42 secretion [1]; [7]): 70%
activity at 100 µM (Aβ42 secretion [1]; [8]): 124%

CN(C)CCCOc1nn(Cc2ccccc2)c2ccccc12 [Benzydamine]
activity at 100 µM (Aβ42 secretion [1]; [6]): 132%
activity at 100 µM (Aβ42 secretion [1]; [7]): 90%
activity at 100 µM (Aβ42 secretion [1]; [8]): 128%

COc1ccc2c(c1)c(CC(=O)OCC(=O)O)c(C)n2C(=O)c1ccc(Cl)cc1 [Acemetacin]
activity at 100 µM (Aβ42 secretion [1]; [6]): 93%
activity at 100 µM (Aβ42 secretion [1]; [7]): 110%
activity at 100 µM (Aβ42 secretion [1]; [8]): 101%

Cc1c(Cl)cccc1Nc1ccccc1C(=O)O [Tolfenamic Acid, tolfenamic acid]
selective reduction of Aβ42 levels in the primary screen (Aβ42 secretion [1]): did not
activity at 100 µM (Aβ42 secretion [1]; [6]): 110%
activity at 100 µM (Aβ42 secretion [1]; [7]): 84%
activity at 100 µM (Aβ42 secretion [1]; [8]): 95%

COc1ccc2cc(CCC(C)=O)ccc2c1 [Nabumetone]
activity at 100 µM (Aβ42 secretion [1]; [6]): 70%
activity at 100 µM (Aβ42 secretion [1]; [7]): 157%
activity at 100 µM (Aβ42 secretion [1]; [8]): 103%

CCc1cccc2c3c([nH]c12)C(CC)(CC(=O)O)OCC3 (centres unmarked) [Etodolac]
activity at 100 µM (Aβ42 secretion [1]; [6]): 120%
activity at 100 µM (Aβ42 secretion [1]; [7]): 85%
activity at 100 µM (Aβ42 secretion [1]; [8]): 109%

C[C@@H](C(=O)O)c1ccc(-c2ccccc2)c(F)c1 [R-flurbiprofen, (2R)-2-(2-Fluoro-1,1′-biphenyl-4-yl)propanoic acid]
brain Aβ42 levels ([2]; 100 mg/kg/day): more effective at lowering brain Aβ42 in this acute dosing paradigm than S-flurbiprofen; also recorded: lower Aβ42 levels
levels of Aβ40 production (Aβ42 production): not altered
Aβ42 levels lowered by (Aβ42 production; 10 μM): 20%
Aβ42 levels lowered by (Aβ42 production; 100 μM): 49%

Oc1ccc(C=Cc2cc(O)cc(O)c2)cc1 [Resveratrol]
activity at 10 µM (Aβ42 secretion [1]; [9]): 130%
activity at 10 µM (Aβ42 secretion [1]; [10]): 75%
activity at 10 µM (Aβ42 secretion [1]; [11]): 107%

CC(C(=O)O)c1ccc(N2Cc3ccccc3C2=O)cc1 (centres unmarked) [Indoprofen]
activity at 100 µM (Aβ42 secretion [1]; [6]): 107%
activity at 100 µM (Aβ42 secretion [1]; [7]): 116%
activity at 100 µM (Aβ42 secretion [1]; [8]): 126%

Cc1cnc(NC(=O)C2=C(O)c3ccccc3S(=O)(=O)N2C)s1 [Meloxicam]
activity at 10 µM (Aβ42 secretion [1]; [9]): 158%
activity at 10 µM (Aβ42 secretion [1]; [10]): 64%
activity at 10 µM (Aβ42 secretion [1]; [11]): 122%
Plasma [3]: 15 µM

CN1C(C(=O)Nc2ccccn2)=C(O)c2sccc2S1(=O)=O [Tenoxicam]
activity at 100 µM (Aβ42 secretion [1]; [6]): 112%
activity at 100 µM (Aβ42 secretion [1]; [7]): 80%
activity at 100 µM (Aβ42 secretion [1]; [8]): 92%

O=C(O)c1cc([N+](=O)[O-])ccc1NCCCc1ccccc1 [NPPB, 5-nitro-2-(3-phenylpropylamino)benzoic acid]
activity at 10 µM (Aβ42 secretion [1]; [9]): 66%
activity at 10 µM (Aβ42 secretion [1]; [10]): 81%
activity at 10 µM (Aβ42 secretion [1]; [11]): 48%

CC(C(=O)O)c1ccc2c(c1)[nH]c1ccc(Cl)cc12 (centres unmarked) [Carprofen]
activity at 100 µM (Aβ42 secretion [1]; [6]): 86%
activity at 100 µM (Aβ42 secretion [1]; [7]): 58%
activity at 100 µM (Aβ42 secretion [1]; [8]): 48%

CC(C(=O)O)c1ccc(-c2ccccc2)c(F)c1 (centres unmarked) [Flurbiprofen, flurbiprofen]
brain Aβ42 levels [2]: lower Aβ42 levels
activity at 100 µM (Aβ42 secretion [1]; read-out: % Control % Aβ42): 80%
activity at 100 µM (Aβ42 secretion [1]; read-out: % Control Aβ40): 93%
activity at 100 µM (Aβ42 secretion [1]; read-out: % Control Aβ42): 70%

O=C(O)c1ccccc1Nc1cccc(C(F)(F)F)c1 [Flufenamic Acid, flufenamic acid]
selective reduction of Aβ42 levels in the primary screen (Aβ42 secretion [1]): selectively reduced Aβ42 levels
activity at 10 µM (Aβ42 secretion [1]; [9]): 70%
activity at 10 µM (Aβ42 secretion [1]; [10]): 99%
activity at 10 µM (Aβ42 secretion [1]; [11]): 64%

O=C(O)CCC(=O)c1ccc(-c2ccccc2)cc1 [Fenbufen]
activity at 100 µM (Aβ42 secretion [1]; [6]): 107%
activity at 100 µM (Aβ42 secretion [1]; [7]): 100%
activity at 100 µM (Aβ42 secretion [1]; [8]): 109%

O=C(O)Cc1ccccc1Nc1c(Cl)cccc1Cl [Diclofenac]
total Aβ levels (Aβ42 secretion [4]): did not affect
activity at 100 µM (Aβ42 secretion [1]; [6]): 100%
activity at 100 µM (Aβ42 secretion [1]; [7]): 88%
activity at 100 µM (Aβ42 secretion [1]; [8]): 87%
Plasma [3]: 6.1 µM

CC(C(=O)O)c1ccc(C(=O)c2cccs2)cc1 (centres unmarked) [Suprofen]
activity at 100 µM (Aβ42 secretion [1]; [6]): 102%
activity at 100 µM (Aβ42 secretion [1]; [7]): 126%
activity at 100 µM (Aβ42 secretion [1]; [8]): 129%

CN1C(C(=O)Nc2ccccn2)=C(O)c2ccccc2S1(=O)=O [Piroxicam]
activity at 100 µM (Aβ42 secretion [1]; [6]): 75%
activity at 100 µM (Aβ42 secretion [1]; [7]): 142%
activity at 100 µM (Aβ42 secretion [1]; [8]): 101%

CC(C(=O)O)c1cccc(Oc2ccccc2)c1 (centres unmarked) [Fenoprofen, fenoprofen]
activity at 100 µM (Aβ42 secretion [1]; [6]): 63%
activity at 100 µM (Aβ42 secretion [1]; [7]): 102%
activity at 100 µM (Aβ42 secretion [1]; [8]): 60%

Cc1ccc(-c2cc(C(F)(F)F)nn2-c2ccc(S(N)(=O)=O)cc2)cc1 [Celecoxib, celecoxib]
Plasma [3]: 0.015 µM

Cc1cccc(Nc2ccccc2C(=O)O)c1C [Mefenamic Acid, mefenamic acid]
selective reduction of Aβ42 levels in the primary screen (Aβ42 secretion [1]): selectively reduced Aβ42 levels
activity at 100 µM (Aβ42 secretion [1]; [6]): 72%
activity at 100 µM (Aβ42 secretion [1]; [7]): 116%
activity at 100 µM (Aβ42 secretion [1]; [8]): 78%

CCCCC#CCSc1ccccc1OC(C)=O [APHS]
% Control % Aβ42 (Aβ42 secretion [1]; [12]): 178%
% Control Aβ40 (Aβ42 secretion [1]; [12]): 50%
% Control Aβ42 (Aβ42 secretion [1]; [12]): 114%

O=C(c1ccccc1)c1ccc2n1CCC2C(=O)O (centres unmarked) [Ketorlolac]
activity at 10 µM (Aβ42 secretion [1]; [9]): 142%
activity at 10 µM (Aβ42 secretion [1]; [10]): 84%
activity at 10 µM (Aβ42 secretion [1]; [11]): 131%

Cc1ccc(Cl)c(Nc2ccccc2C(=O)O)c1Cl [Meclofenamic acid, meclofenamic acid]
Brain levels of Aβ40 [2, 13]: 2932 ± 289 fmol/gm
Brain levels of Aβ42 [2, 13]: 679 ± 343 fmol/gm
% Aβ42 in brain ([2]; Tg2576 mice, three month-old, 50 mg/kg/day orally for three days, mean ± SD): 18.6 ± 8.7 %
Aβ40 levels in the brain [2, 14]: no change
reduction in Aβ42 levels in the brain [2, 14]: approximately 30%
selective reduction of Aβ42 levels in the primary screen (Aβ42 secretion [1]): selectively reduced Aβ42 levels
selective reduction of Aβ42, time course (Aβ42 secretion [1]; CHO-APP695NL,I,his cells treated for six, twelve, or twenty-four hours): detectable at six hours
activity at 10 µM (Aβ42 secretion [1]; [9]): 37%
activity at 10 µM (Aβ42 secretion [1]; [10]): 39%
activity at 10 µM (Aβ42 secretion [1]; [11]): 13%

COc1ccc(-n2nc(C(F)(F)F)cc2-c2ccc(Cl)cc2)cc1 [SC560]
activity at 10 µM (Aβ42 secretion [1]; read-out: % Control % Aβ42): 227%
activity at 10 µM (Aβ42 secretion [1]; read-out: % Control Aβ40): 47%
activity at 10 µM (Aβ42 secretion [1]; read-out: % Control Aβ42): 166%

C[C@H](C(=O)O)c1ccc(-c2ccccc2)c(F)c1 [S-flurbiprofen]
levels of Aβ40 production (Aβ42 production): not altered
Aβ42 levels lowered by (Aβ42 production; 100 μM): 58%
